Test results: ChEMBL document CHEMBL6096642 (Eur J Med Chem, 2025)
Values belong to the compound of their own block, whether it stands above or below them. Active and inactive are the calls of the source. No cut-off for these calls is given here.

Tests used:
[1] = target: T1, Aldo-keto reductase family 1 member A1 (Rattus norvegicus, UniProt P51635); experiment: Inhibition of rat kidney ALR1; assay type: tissue-based
T1 sequence (P51635 whole entry): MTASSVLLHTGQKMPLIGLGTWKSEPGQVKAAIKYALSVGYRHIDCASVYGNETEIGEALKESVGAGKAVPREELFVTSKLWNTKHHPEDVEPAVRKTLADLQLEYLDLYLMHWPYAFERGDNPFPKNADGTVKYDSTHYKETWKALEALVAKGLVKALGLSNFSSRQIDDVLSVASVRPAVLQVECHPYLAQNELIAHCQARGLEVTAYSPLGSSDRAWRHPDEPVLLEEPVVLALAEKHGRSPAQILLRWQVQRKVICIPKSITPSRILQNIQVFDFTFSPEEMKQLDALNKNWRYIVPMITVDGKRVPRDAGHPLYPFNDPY

[2] = target: T1, Aldo-keto reductase family 1 member A1; experiment: Inhibition of male Wistar rat kidney ALR1 using D-glucuronate as substrate assessed as NADPH consumption by spectrophotometric analysis
[3] = target: Aldo-keto reductase family 1 member B1 (Rattus norvegicus, UniProt P07943); experiment: Inhibition of male Wistar rat lens ALR2 using D,L-glyceraldehyde as substrate assessed as NADPH consumption by spectrophotometric analysis
Rattus norvegicus [4] = organism: Rattus norvegicus; experiment: Selectivity index, ratio of IC50 for male Wistar rat kidney ALR1 using D-glucuronate as substrate to IC50 for male Wistar rat lens ALR2 using D,L-glyceraldehyde as substrate
[5] = target: T2, Tyrosine-protein phosphatase non-receptor type 1 (Homo sapiens) (UniProt P18031); experiment: (§1) Inhibition of polyhis-tagged recombinant human PTP1B (1 to 303 residues) extracted from Escherichia coli BL21 (DE3) pLysS using p-nitro-phenyl phosphate as substrate at 10 uM preincubated for 15 mins followed by substrate addition and measured after 15 mins by absorbance based analysis relative to control; details: time 30.0 min
T2 sequence (whole entry): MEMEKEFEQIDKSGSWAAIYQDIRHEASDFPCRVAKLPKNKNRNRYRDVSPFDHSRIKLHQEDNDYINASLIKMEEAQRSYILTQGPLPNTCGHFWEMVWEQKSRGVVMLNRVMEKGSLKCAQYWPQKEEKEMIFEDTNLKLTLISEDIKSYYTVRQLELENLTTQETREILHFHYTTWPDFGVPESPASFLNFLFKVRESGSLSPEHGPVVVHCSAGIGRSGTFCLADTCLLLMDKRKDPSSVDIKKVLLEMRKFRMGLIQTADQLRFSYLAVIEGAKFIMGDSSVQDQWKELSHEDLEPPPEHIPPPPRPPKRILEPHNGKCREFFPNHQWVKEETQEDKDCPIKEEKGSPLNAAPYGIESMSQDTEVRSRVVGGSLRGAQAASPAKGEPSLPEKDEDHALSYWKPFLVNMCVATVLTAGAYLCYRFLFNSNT

[6] = target: T2, Tyrosine-protein phosphatase non-receptor type 1 (Homo sapiens); experiment: as §1, with “50” for “10”; details: time 30.0 min
[7] = target: Aldo-keto reductase family 1 member B1 (Rattus norvegicus) (UniProt P07943); experiment: Inhibition of male Wistar rat lens ALR2 using D,L-glyceraldehyde as substrate assessed as NADPH consumption at 10 uM by spectrophotometric analysis relative to control
[8] = target: Aldo-keto reductase family 1 member B1 (Rattus norvegicus) (UniProt P07943); experiment: Inhibition of male Wistar rat lens ALR2 using D,L-glyceraldehyde as substrate assessed as NADPH consumption at 1 uM by spectrophotometric analysis relative to control
C2C12 [9] = experiment: Effect on mitochondrial mass in mouse C2C12 cells at 25 to 50 uM incubated for 72 hrs by Mitotracker green based flow cytometric analysis; assay type: functional, cell-based; details: dose 25-50 µM
[10] = Selectivity index, ratio of IC50 for TCPTP (unknown origin) extracted from Escherichia coli BL21 TB1 using p-nitro-phenyl phosphate as substrate to IC50 for human PTP1B extracted from Escherichia coli BL21 TB1 using p-nitro-phenyl phosphate as substrate
[11] = target: T3, Tyrosine-protein phosphatase non-receptor type 1 (Homo sapiens, UniProt P18031); experiment: Inhibition of polyhis-tagged recombinant human PTP1B (1 to 303 residues) extracted from Escherichia coli BL21 (DE3) pLysS using p-nitro-phenyl phosphate as substrate assessed as substrate hydrolysis by measuring p-nitrophenolate release by absorbance based analysis
T3 sequence (P18031 whole entry): T2 sequence (whole entry)

Rattus norvegicus [12] = organism: Rattus norvegicus; experiment: Selectivity index, ratio of IC50 for rat kidney ALR1 to IC50 for rat lens ALR2
[13] = target: T4, Tyrosine-protein phosphatase non-receptor type 2 (Homo sapiens, UniProt P17706); experiment: Inhibition of polyHis-tagged recombinant human TCPTP (1 to 415 residues) extracted from Escherichia coli BL21 (DE3) pLysS using p-nitro-phenyl phosphate as substrate assessed as substrate hydrolysis by measuring p-nitrophenolate release by absorbance based analysis
T4 sequence (P17706 whole entry): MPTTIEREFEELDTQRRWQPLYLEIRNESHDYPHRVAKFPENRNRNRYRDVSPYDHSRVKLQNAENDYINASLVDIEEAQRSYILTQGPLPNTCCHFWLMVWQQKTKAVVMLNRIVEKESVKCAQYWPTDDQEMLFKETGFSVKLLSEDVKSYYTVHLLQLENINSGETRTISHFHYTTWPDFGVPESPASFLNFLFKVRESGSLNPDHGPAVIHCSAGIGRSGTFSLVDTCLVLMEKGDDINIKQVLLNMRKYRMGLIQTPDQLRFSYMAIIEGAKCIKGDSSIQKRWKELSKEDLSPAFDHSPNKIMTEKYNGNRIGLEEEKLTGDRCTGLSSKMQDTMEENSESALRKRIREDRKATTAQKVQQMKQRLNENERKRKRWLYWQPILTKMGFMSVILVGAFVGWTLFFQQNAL

Homo sapiens = organism: Homo sapiens; experiment: Selectivity index, ratio of IC50 for polyHis-tagged recombinant human TCPTP (1 to 415 residues) extracted from Escherichia coli BL21 (DE3) pLysS using p-nitro-phenyl phosphate as substrate to IC50 for polyhis-tagged recombinant human PTP1B (1 to 303 residues) extracted from Escherichia coli BL21 (DE3) pLysS using p-nitro-phenyl phosphate as substrate
[14] = target: T2, Tyrosine-protein phosphatase non-receptor type 1 (Homo sapiens); experiment: Irreversible inhibition of polyhis-tagged recombinant human PTP1B (1 to 303 residues) extracted from Escherichia coli BL21 (DE3) pLysS at 200 uM incubated for 1 hrs and measured after dilution
C2C12 [15] = experiment: Cytotoxicity against mouse C2C12 cells assessed as reduction in cell viability at 1 uM measured after 48 hrs by MTT assay; assay type: toxicity, cell-based; details: c2c12, 48 h
C2C12 [16] = experiment: Induction of glucose uptake in mouse C2C12 cells assessed as increase in 2-NDBG uptake at 25 to 50 uM incubated for 30 mins by flow cytometric analysis; assay type: functional, cell-based; details: dose 25-50 µM
C2C12 [17] = experiment: Enhancement of […] glucose uptake in mouse C2C12 cells assessed as increase in 2-NDBG uptake at 25 to 50 uM preincubated for 30 mins followed by insulin addition and measure after 30 mins by flow cytometric analysis; assay type: functional, cell-based; details: dose 25-50 µM, time 60.0 min
C2C12 [18] = experiment: Induction of glucose uptake in mouse C2C12 cells assessed as decrease in glucose concentration in cell culture medium at 25 to 50 uM incubated for 24 hrs by BGSTAR glucometric analysis; assay type: functional, cell-based; details: dose 25-50 µM
C2C12 [19] = experiment: Induction of Akt phosphorylation in mouse C2C12 cells at 25 uM incubated for 30 mins by Western blot analysis; assay type: cell-based
C2C12 [20] = experiment: Induction of Akt phosphorylation in mouse C2C12 cells at 25 uM incubated for 30 mins in presence of insulin by Western blot analysis; assay type: cell-based
Mitochondrial membrane = experiment: Induction of mitochondrial membrane potential loss in mouse C2C12 cells at 25 uM incubated for 0.5 to 50 hrs by TMRE probe based flow cytometric analysis; details: time 0.5-50 hrs
C2C12 [21] = experiment: Effect on mitochondrial mass in mouse C2C12 cells at 25 uM incubated for 72 hrs by Mitotracker green based flow cytometric analysis; assay type: functional, cell-based
C2C12 [22] = experiment: Reduction of mitochondrial mass in mouse C2C12 cells at 25 uM incubated for 72 hrs by Mitotracker green based flow cytometric analysis; assay type: functional, cell-based
C2C12 [23] = experiment: Induction of mitochondrial uncoupling activity in mouse C2C12 cells assessed as increase in proton leak at 25 uM incubated for 30 mins by Seahorse XF cell mito stress analysis; assay type: functional, cell-based
C2C12 [24] = experiment: Induction of mitochondrial uncoupling activity in mouse C2C12 cells assessed as decrease in oxygen-dependent ATP production at 25 uM incubated for 30 mins by Seahorse XF cell mito stress analysis; assay type: functional, cell-based
C2C12 [25] = experiment: Induction of mitochondrial uncoupling activity in mouse C2C12 cells assessed as decrease in sparse capacity at 25 uM incubated for 30 mins by Seahorse XF cell mito stress analysis; assay type: functional, cell-based
C2C12 [26] = experiment: Induction of mitochondrial uncoupling activity in mouse C2C12 cells assessed as decrease in coupling efficiency at 25 uM incubated for 30 mins by Seahorse XF cell mito stress analysis; assay type: functional, cell-based
C2C12 [27] = experiment: Effect on basal respiration rate in mouse C2C12 cells assessed as decrease in coupling efficiency at 25 uM incubated for 30 mins by Seahorse XF cell mito stress analysis; assay type: functional, cell-based
C2C12 [28] = experiment: Effect on maximal respiration rate in mouse C2C12 cells assessed as decrease in coupling efficiency at 25 uM incubated for 30 mins by Seahorse XF cell mito stress analysis; assay type: functional, cell-based
C2C12 [29] = experiment: Reduction in basal respiration rate in mouse C2C12 cells assessed as decrease in coupling efficiency at 25 uM incubated for 24 hrs by Seahorse XF cell mito stress analysis; assay type: functional, cell-based
C2C12 [30] = experiment: Reduction in oxygen-dependent ATP production in mouse C2C12 cells assessed as decrease in coupling efficiency at 25 uM incubated for 24 hrs by Seahorse XF cell mito stress analysis; assay type: functional, cell-based
C2C12 [31] = experiment: Reduction in proton leak in mouse C2C12 cells assessed as decrease in coupling efficiency at 25 uM incubated for 24 hrs by Seahorse XF cell mito stress analysis; assay type: functional, cell-based
C2C12 [32] = experiment: Reduction in maximal respiration rate in mouse C2C12 cells assessed as decrease in coupling efficiency at 25 uM incubated for 24 hrs by Seahorse XF cell mito stress analysis; assay type: functional, cell-based
C2C12 [33] = experiment: Effect on sparse capacity in mouse C2C12 cells assessed as decrease in coupling efficiency at 25 uM incubated for 24 hrs by Seahorse XF cell mito stress analysis; assay type: functional, cell-based
C2C12 [34] = experiment: Effect on couple efficiency in mouse C2C12 cells assessed as decrease in coupling efficiency at 25 uM incubated for 24 hrs by Seahorse XF cell mito stress analysis; assay type: functional, cell-based

IC50 [3]: 0.018 µM
IC50 [2]: 14.2 µM
Ratio IC50 (Rattus norvegicus [4]): 787
inhibition [5]: 0%
inhibition [6]: 90.8%
inhibition [7]: > 92%
inhibition [8]: > 70%
SMILES: O=C(O)CN1C(=O)S/C(=C\c2cn(Cc3ccc(F)cc3)c3ccccc23)C1=O

IC50 [3]: 0.187 µM
IC50 [2]: > 15 µM
Ratio IC50 (Rattus norvegicus [4]): > 80
inhibition [5]: 0%
inhibition [6]: 4.4%
IC50 [11]: > 50 µM
inhibition [7]: > 92%
inhibition [8]: > 70%
SMILES: O=C(O)CN1C(=O)S/C(=C\c2cn(Cc3ccc(Br)cc3F)c3ccccc23)C1=O

IC50 [3]: 0.026 µM
IC50 [2]: 7.54 µM
Ratio IC50 (Rattus norvegicus [4]): 290
inhibition [5]: 18.3%
inhibition [6]: 49.6%
IC50 [11]: 42.8 µM
IC50 [13]: 47.1 µM
Ratio IC50 (Homo sapiens): 1.1
inhibition [7]: > 92%
inhibition [8]: > 70%
inhibition [14]: Active
SMILES: O=C(O)CN1C(=O)S/C(=C\c2cn(Cc3ccccc3)c3ccccc23)C1=O

Further lines, the compound ahead of its results:

SMILES: CC(/C=C1\SC(=S)N(CC(=O)O)C1=O)=C\c1ccccc1
IC50 [1]: 2.14 µM
IC50 [2]: 2.37 µM

SMILES: CN(C)C(=N)NC(=N)N
Activity (C2C12 [9]): inactive

SMILES: O=c1c(O)c(-c2ccc(O)cc2O)oc2cc(O)cc(O)c12
inhibition [5]: 34.5%
inhibition [6]: 95.2%
Ratio IC50 [10]: 1.3

SMILES: Cc1ccc(CN2C(=O)C(C(C#N)C(=O)O)c3cc(F)ccc32)cc1 (stereo not given)
Ratio IC50 (Rattus norvegicus [12]): 16

SMILES: O=C(O)CN1C(=O)S/C(=C\c2cn(Cc3ccc(Cl)cc3Cl)c3ccccc23)C1=O
IC50 [3]: 0.289 µM
IC50 [2]: > 15 µM
Ratio IC50 (Rattus norvegicus [4]): > 52
inhibition [5]: 28.1%
inhibition [6]: 62.8%
IC50 [11]: 21.3 µM
IC50 [13]: 37.8 µM
Ratio IC50 (Homo sapiens): 1.8
inhibition [7]: > 92%
inhibition [8]: > 70%
inhibition [14]: Active
Activity (C2C12 [15]): Toxic
Activity (C2C12 [16]): Active
Activity (C2C12 [17]): inactive
Activity (C2C12 [18]): Active
Activity (C2C12 [19]): Not active; Compound Acted Neither As An Insulin Mimetic Nor A Sensitizing Agent
Activity (C2C12 [20]): Not active; Compound Acted Neither As An Insulin Mimetic Nor A Sensitizing Agent
Activity (Mitochondrial membrane): Active; Compound Targets Mitochondria As An Uncoupling Agent
Activity (C2C12 [21]): inactive
Activity (C2C12 [22]): Active
Activity (C2C12 [23]): Active
Activity (C2C12 [24]): Active
Activity (C2C12 [25]): Active
Activity (C2C12 [26]): Active
Activity (C2C12 [27]): inactive
Activity (C2C12 [28]): inactive
Activity (C2C12 [29]): Active
Activity (C2C12 [30]): Active
Activity (C2C12 [31]): Active
Activity (C2C12 [32]): Active
Activity (C2C12 [33]): inactive
Activity (C2C12 [34]): inactive
